Here are results for 13 molecules from paper PMC6017616, “Synthesis and Evaluation of the Antioxidant Activity of Lipophilic Phenethyl Trifluoroacetate Esters by In Vitro ABTS, DPPH and in Cell-Culture DCF Assays” (Molecules : A Journal of Synthetic Chemistry and Natural …, 2018).

Structures are written as SMILES. Structures can show the parent of a compound that is named as a salt.

The term logP denotes a log measure of how a compound divides between an organic and an aqueous phase. Low readings indicate lower lipophilicity, high ones higher lipophilicity.

One series is described as follows: ABTS assay (TEAC). The following applies: for Trolox Equivalent Antioxidant Capacity (TEAC): ethanol, room temperature, 734 nm, 2 min, extrapolated at 10 μM, Trolox mM equivalent. The procedure: The antioxidant capacity of compounds 1–12 was measured according to the method of Pellegrini et al. but working at room temperature. 6-Hydroxy-2,5,7,8-tetramethylchroman-2-carboxylic acid (Trolox) was used as reference. The analyses were carried out in ethanol (0.2% of water) at room temperature and the absorbance was measured at λ = 734 nm. Each sample (1.0 mL) of ABTS^+• was obtained from the aqueous mother solution by dilution with ethanol to an absorbance of […], and 10 μL of the ethanol solution of the antioxidant was added. All compounds were analyzed at four different final concentrations ranging from 1 to 10 μM. The absorbance was measured after 2 min. Four measurements were recorded for each concentration. Each time blanks of pure solvent were run. The standard deviations of data were all below 5%. The dose-response curves were expressed as the percentage of absorbance decrease (ABTS inhibition expressed as percentage) against the amount of antioxidant concentration. Linear regression was conducted using GraphPad Prism 4.01 (2004) software. The antioxidant capacities were extrapolated at 10 μM concentration and reported as Trolox Equivalent Antioxidant Capacity (TEAC), defined as the concentration (mmol/L) of Trolox having the antioxidant capacity equivalent to that of a 1.0 mmol/L solution of the substance under investigation. Results are expressed as mean ± standard deviation. Statistical analyses were performed using the Student’s t test. The level of significance was p < 0.05 for all data.

The next series concerns L6 myoblasts. Briefly: Intracellular ROS determination (DCF assay) in L6 myoblasts. The format is cell-based, rat. The following applies: for antioxidant activity in cells, DCF assay: L6 and THP-1 cells; for activity at 10 µM: Rattus norvegicus, L6, 10 min, L-6 cells, compound 10 µM, 200 µM cumene hydroperoxide, ΔF/10 min, read-out: Intracellular ROS, DCF fluorescence (Mean) relative to cumene hydroperoxide alone (100%). The procedure:
(§1) The fluorometric DCF assay is a useful technique to evaluate the antioxidant activity of compounds in cells exposed to oxidative stress induced by cumene hydroperoxide. The analyses were carried out in two different cell lines particularly sensitive to radical production: L6 myoblasts from rat skeletal muscle and THP-1 human leukemic monocytes.
(§2) The antioxidant activity of each compound was measured by a standard intracellular fluorescent probe (DCF) assay using L6 myoblasts and THP-1 monocytes exposed to oxidative stress by the addition of cumene hydroperoxide, a radical generator. Fluorescence was measured over a 10-min period, and the ability of the compounds to eliminate the increased ROS production was determined. For L6 myoblasts, growing attached to the bottom of the flask, the medium was discarded and cells were washed twice with 5 mL phosphate buffered saline (PBS) containing 5.0 mM glucose (PBS-glucose) at 37 °C. Cells were gently scraped off with PBS-glucose at 37 °C and centrifuged at 1200 rpm for 5 min (approximately 100× g). The supernatant was discarded and the pellet resuspended in PBS-glucose. Incubation with the probe DCFH2-DA at a final concentration of 10 µM (from a stock solution of 10 mM in DMSO) was carried out for 30 min at 37 °C in the dark. At the end of the incubation, cells were washed twice, centrifuged at 1200 rpm for 5 min, and the final cell pellet was resuspended in PBS-glucose. Before the experiment was initiated, cells were allowed to recover for 1 h at room temperature in the dark. The THP-1 monocytes, growing in suspension, were centrifuged at 1200 rpm for 10 min. The supernatant was discarded, and cells were washed twice with 5 mL PBS-glucose at 37 °C to remove the serum. The pellet was successively resuspended in PBS-glucose, and the probe DCFH2-DA was added at 10 µM final concentration. From that point onwards, the protocols for the two cell types were identical. Intracellular fluorescence was measured at 37 °C using a Perkin Elmer VICTOR 3V spectrofluorometer (excitation at λ = 498 nm and emission at λ = 530 nm). […] Cells were incubated with compounds at the final designated concentration for 10 min at 37 °C before addition of the radical generator. The decrease in the intracellular DCF fluorescence relative to the fluorescence change induced by 200 μM cumene hydroperoxide alone (100%), reported as ΔF/10 min, determined the antioxidant activities. Data are reported as the mean ± standard deviation of at least four different experiments carried out in triplicate. One-way ANOVA test (non-parametric) and Bonferroni post-test (comparing all pairs of columns) were used for the statistical analyses.

For series [1], the system named is THP-1 human leukemic monocytes. Briefly: Intracellular ROS determination (DCF assay) in THP-1 monocytes. The format is cell-based. To be noted: 10 min, THP-1 cells, compound 10 µM, 200 µM cumene hydroperoxide, ΔF/10 min, read-out: Intracellular ROS, DCF fluorescence (Mean) relative to cumene hydroperoxide alone (100%). Here is the method: as §1, §2
Series [2] can be described thus: Measurement of partition coefficient (logP) by UV-Vis spectrophotometry. The following applies: 1-octanol / phosphate buffer 0.1 M pH 7.4; mean of triplicate determinations. It counts as physicochemical. From the text:
Lipophilicity is a relevant property to estimate the bioavailability and dispersion of a molecule in non-aqueous media (oils, fats, and emulsions) and in the cellular environment. Generally, it can be related to logP, a parameter that evaluates the partition of a molecule between two immiscible solvents (water and 1-octanol). […] As already reported in the literature, the lipophilic character increased from hydroxytyrosol 6 to homovanillyl alcohol 5 and tyrosol 4.
The logP value of all compounds was determined as reported in the literature by UV-Vis spectrophotometry. The partition coefficient (logP) was calculated according to the following relationship: logP = logAx/(A0 − Ax). A0 was the maximum of absorbance of a solution 0.15 mM of each compound dissolved in 1-octanol; Ax is the maximum of absorbance of the organic solution containing the compound after separation from the phosphate buffer (0.1 M, pH 7.4) solution. A solution of 1-octanol saturated with the buffer was used as a blank.

The subject of a further series is L6 cells. As to the kind of experiment: Proliferation curves (cell counts) in L6 cells. To be noted: 10 µM, absence or presence of cumene hydroperoxide 40 µM. The format is cell-based, rat. Here is the method:
(§3) L6 cells were seeded in 60 × 15 mm Petri dishes in 4 mL of the complete growth medium at a density of approximately 10^5 cells/well. The following day, the cells were exposed to the selected compounds 1, 5–7, 11, and 12 at a final concentration of 10 µM in the absence and presence of cumene hydroperoxide (40 µM). Cell counts using a Neubauer chamber were made every 24 h up to confluence. Each time the L6 myoblasts had to be counted, they first underwent a mild trypsinization. THP-1 cells were seeded in 24-well plates in 1 mL of the growth medium. After 24 h, the cells were exposed to 10 µM of the same compounds in the absence and presence of cumene hydroperoxide (200 µM) and incubated for an additional 24 h. Cell counts using a Neubauer chamber were made every 24 h up to confluence. The results are given as the mean ± standard deviation of two different experiments.

The subject of the next series is THP-1 cells. As to the kind of experiment: Proliferation curves (cell counts) in THP-1 cells. It counts as cell-based, human. The following applies: 10 µM, absence or presence of cumene hydroperoxide 200 µM. The procedure: as §3

Take `OCCc1ccccc1` [Compound 1, phenethyl alcohol]: in “ABTS assay (TEAC)”, the “antiradical activity / antioxidant capacity in ABTS assay” value is “very low antiradical activity” and the “Trolox Equivalent Antioxidant Capacity (TEAC)” value is 0.00 mM. Besides, in the series on L6 myoblasts, the “antioxidant activity in cells, DCF assay” value is “good antioxidant activity” and the activity at 10 µM is 31%. Also, in series [1], the activity at 10 µM is 33%.

In turn, `OCCc1ccccc1O` [Compound 2, 2-hydroxyphenethyl alcohol] gave a logP in series [2] of 0.72 ± 0.07. In “ABTS assay (TEAC)”, the “antiradical activity / antioxidant capacity in ABTS assay” value is listed as “good antioxidant capacity” and the “Trolox Equivalent Antioxidant Capacity (TEAC)” value is given as 0.69 mM. Besides, the activity at 10 µM with L6 myoblasts was determined as 23%. Moreover, the activity at 10 µM in series [1] turned out to be 25%.

The molecule `OCCc1cccc(O)c1` [Compound 3, 3-hydroxyphenethyl alcohol] registered a logP in series [2] of 0.66 ± 0.06. Also, the “Trolox Equivalent Antioxidant Capacity (TEAC)” value in the series “ABTS assay (TEAC)” is recorded as 0.43 mM. Besides, the activity at 10 µM in the series on L6 myoblasts turned out to be 25%; in series [1] it was 23%.

`OCCc1ccc(O)cc1` [Compound 4, 4-hydroxyphenethyl alcohol]: the logP in series [2] was determined as 0.69 ± 0.05. The “Trolox Equivalent Antioxidant Capacity (TEAC)” value in the series “ABTS assay (TEAC)” is 0.45 mM. Moreover, the figures for the activity at 10 µM (in the series on L6 myoblasts; in series [1]) were 41% and 25%, respectively.

For `COc1cc(CCO)ccc1O` [Compound 5, 4-hydroxy-3-methoxyphenethyl alcohol], the logP in series [2] is 0.46 ± 0.02. Moreover, the “antiradical activity / antioxidant capacity in ABTS assay” value in the series “ABTS assay (TEAC)” is “good antioxidant capacity”. Further, the “Trolox Equivalent Antioxidant Capacity (TEAC)” value in “ABTS assay (TEAC)” is reported as 0.81 mM. For the same molecule, the values for the activity at 10 µM (in the series on L6 myoblasts; in series [1]) were 22% and 21%, respectively. Also, the “effect on cell proliferation (cell counts)” value was “promoted L6 myoblast proliferation” with L6 cells and “inhibited THP-1 tumor cell growth” with THP-1 cells.

With `OCCc1ccc(O)c(O)c1` [Compound 6, 3,4-dihydroxyphenethyl alcohol], the logP in series [2] turned out to be 0.1 ± 0.01. Moreover, in the series “ABTS assay (TEAC)”, the “antiradical activity / antioxidant capacity in ABTS assay” value is “good antioxidant capacity” and the “Trolox Equivalent Antioxidant Capacity (TEAC)” value is reported as 0.68 mM. The activity at 10 µM with L6 myoblasts amounted to 7%. Moreover, the activity at 10 µM in series [1] was found to be 14%.

As for `O=C(OCCc1ccccc1)C(F)(F)F` [Compound 7, Phenethyl trifluoroacetate], in series [2], the logP worked out at 2.38 ± 0.18. Moreover, in “ABTS assay (TEAC)”, the “antiradical activity / antioxidant capacity in ABTS assay” value is given as “very low antiradical activity” and the “Trolox Equivalent Antioxidant Capacity (TEAC)” value is 0.00 mM. For the same molecule, in the series on L6 myoblasts, the “antioxidant activity in cells, DCF assay” value is on record as “good antioxidant activity” and the activity at 10 µM was determined as 29%. The activity at 10 µM in series [1] is 30%.

The molecule `O=C(OCCc1ccccc1O)C(F)(F)F` [Compound 8, 2-Hydroxyphenethyl trifluoroacetate] had a logP in series [2] of 2.05 ± 0.16. Further, in “ABTS assay (TEAC)”, the “antiradical activity / antioxidant capacity in ABTS assay” value is given as “good antioxidant capacity” and the “Trolox Equivalent Antioxidant Capacity (TEAC)” value is 0.75 mM. For the same molecule, the activity at 10 µM in the series on L6 myoblasts is 26%. Further, the activity at 10 µM in series [1] worked out at 25%.

Molecule `O=C(OCCc1cccc(O)c1)C(F)(F)F` [Compound 9, 3-Hydroxyphenethyl trifluoroacetate] showed a logP in series [2] of 1.96 ± 0.14. Also, the “Trolox Equivalent Antioxidant Capacity (TEAC)” value in “ABTS assay (TEAC)” is reported as 0.38 mM. The values for the activity at 10 µM (with L6 myoblasts; in series [1]) were 25% and 28%, respectively.

In turn, `O=C(OCCc1ccc(O)cc1)C(F)(F)F` [Compound 10, 4-Hydroxyphenethyl trifluoroacetate] came in with a logP in series [2] of 1.98 ± 0.14. Further, the “Trolox Equivalent Antioxidant Capacity (TEAC)” value in “ABTS assay (TEAC)” is on record as 0.36 mM. Besides, the figures for the activity at 10 µM (in the series with L6 myoblasts; in series [1]) were 21% and 20%, respectively.

`COc1cc(CCOC(=O)C(F)(F)F)ccc1O` [Compound 11, 4-Hydroxy-3-methoxyphenethyl trifluoroacetate] yielded a logP in series [2] of 1.9 ± 0.12. For the same molecule, the “antiradical activity / antioxidant capacity in ABTS assay” value in the series “ABTS assay (TEAC)” is given as “good antioxidant capacity”. Moreover, in the series “ABTS assay (TEAC)”, the “Trolox Equivalent Antioxidant Capacity (TEAC)” value is 0.87 mM. The activity at 10 µM with L6 myoblasts is 20%; in series [1], 23%.

`O=C(OCCc1ccc(O)c(O)c1)C(F)(F)F` [Compound 12, 3,4-Dihydroxyphenethyl trifluoroacetate]: in series [2], the logP turned out to be 1.62 ± 0.12. Moreover, in the series “ABTS assay (TEAC)”, the “antiradical activity / antioxidant capacity in ABTS assay” value is given as “good antioxidant capacity” and the “Trolox Equivalent Antioxidant Capacity (TEAC)” value was 0.77 mM. In addition, the activity at 10 µM with L6 myoblasts was 4%. Further, in series [1], the activity at 10 µM was determined as 16%.

As to `Cc1c(C)c2c(c(C)c1O)CCC(C)(C(=O)O)O2` (stereo not drawn) [Trolox, 6-Hydroxy-2,5,7,8-tetramethylchroman-2-carboxylic acid], the “Trolox Equivalent Antioxidant Capacity (TEAC)” value in “ABTS assay (TEAC)” is 1.00 mM.
